Reference: patent EP0185066B1, “SULPHUR-CONTAINING DERIVATIVES OF PARA-METHOXYCINNAMIC ACID, PRODUCTION PROCESSES THEREOF, DERMO-PHARMACEUTICAL AND COSMETIC COMPOSITIONS CONTAINING THEM AND APPLICATIONS” (UNIVERSITE LOUIS PASTEUR (STRASBOURG I), priority 1984, dated 1986)

Key:
[1] = UV absorption spectrum (sunscreen filtering range); type: physicochemical
Text: Les composés de formule III conformes à la présente invention possèdent des propriétés de filtres solaires intéressants. Ils présentent un maximum d'efficacité tant au niveau de leur capacité d'absorption ultra-violette qu'à celui de leur fixation sur la peau. Leur spectre d'absorption se situe dans la zone des U.V.B. érythématogènes avec un maximum vers 310 nm; ils laissent passer les rayons U.V.A.

[2] = parameters: species or system lapin; conditions: in vivo
Text: Une étude in vivo de la fixation des filtres soufrés de formules III et Il à la couche cornée a été réalisée sur la peau de lapin. Aucune trace d'acide para-méthoxycinnamique, métabolite de tout filtre solaire de formules III ou II, n'a pu être décelée dans le sang des lapins traités. La méthode d'analyse par chromatographie en phase gazeuse couplée à la spectrométrie de masse permet de déceler des concentrations de l'ordre de 10 pg. L'on peut donc en conclure que ces composés ne pénètrent pas dans le torrent circulatoire, contrairement au para-méthoxycinnamate d'éthyle-2-hexyle évoqué dans le préambule ainsi que les produits obtenus à partir du Brevet Pierre FABRE.
Le composé présentant des propriétés de filtre solaire, conforme à la présente invention est incorporé à la concentration 5% dans une émulsion qui peut avoir par exemple la composition suivante:
Méthode de recherche de l'acide para-méthoxycinnamique (métabolite) dans le sang de lapin après application des filtres solaires soufrés conformes à l'invention incorporé dans l'émulsion précédente. • - Conditions d'application et préjèvement plasmatiques
2 g d'émulsion à tester sont appliqués sur la peau épilée du lapin. […] Les mesures sont effectuées sur la fraction plasmatique. - Déterminations quantitatives en CPG(SM […]

With COc1ccc(/C=C/C(=O)OCCSSCC(N)C(=O)O)cc1 (stereo not drawn) [III (n = 2, m = 1, R2 = H et R1 = OH)] the “maximum d'absorption U.V.” value [1] was 310 nm.
In the case of COc1ccc(/C=C/C(=O)OCCS)cc1 [II, para-méthoxycinnamatede thio-2-éthanol], the “maximum d'absorption U.V.” value [1] was 310 nm.
In the case of CCCCC(CC)COC(=O)C=Cc1ccc(OC)cc1 (stereo not drawn) [PMCEH, para-méthoxycinnamate d'éthyle-2 hexyle], the “concentration d'acide para-méthoxycinnamique retrouvé dans le sang” value [2] was “comprise entre le ng et plusieurs µg”.
